Source: patent US20040266732A1, “Therapeutic agents, methods, and treatments” (priority 2002, published 2004)

Key:
Assay in all cases: NCI 60 cell-line test
Assay type in all cases: cell-based, human
SR = SR (Leukemia)
Protocol: (§1) Methodology: The NCI conducted a test of the MT103 drug against 60 human cell lines, with a minimum of five concentrations of MT103 at 10-fold dilutions. A 48 hour continuous drug exposure was used, and a sulforhodamine B (SRB) protein assay was used to estimate cell viability and growth. The human tumor cell lines of the cancer screening panel were grown in RPMI 1640 medium containing 5% fetal bovine serum and 2 mM L-glutamine. Cells were inoculated into 96 well microtiter plates in 100 μL at plating densities ranging from 5,000 to 40,000 cells/well depending on the doubling time of individual cell lines. After cell inoculation, the microtiter plates are incubated at 37° C., 5% CO2, 95% air, and 100% relative humidity for 24 h prior to addition of experimental drugs.
(§2) After 24 h, two plates of each cell line were fixed in situ with TCA, to represent a measurement of the cell population for each cell line at the time of drug addition (Tz). MT103 was solubilized in dimethyl sulfoxide at 400-fold the desired final maximum test concentration and stored frozen prior to use. At the time of drug addition, an aliquot of frozen concentrate was thawed and diluted to twice the desired final maximum test concentration with complete medium containing 50 μg/ml gentamicin. Additional four, 10-fold or ½ log serial dilutions were made to provide a total of five drug concentrations plus control. Aliquots of 100 μl of these different drug dilutions were added to the appropriate microtiter wells already containing 100 μl of medium, resulting in the required final drug concentrations.
(§3) Following drug addition, the plates were incubated for an additional 48 h at 37° C., 5% CO2, 95% air, and 100% relative humidity. For adherent cells, the assay was terminated by the addition of cold TCA. Cells were fixed in situ by the gentle addition of 50 μl of cold 50% (w/v) TCA (final concentration, 10% TCA) and incubated for 60 minutes at 4° C. The supernatant was discarded, and the plates were washed five times with tap water and air dried. Sulforhodamine B (SRB) solution (100 μl) at 0.4% (w/v) in 1% acetic acid was added to each well, and plates were incubated for 10 minutes at room temperature. After staining, unbound dye was removed by washing five times with 1% acetic acid and the plates were air-dried. Bound stain was subsequently solubilized with 10 mM trizma base, and the absorbance was read on an automated plate reader at a wavelength of 515 nm. For suspension cells, the methodology was the same except that the assay was terminated by fixing settled cells at the bottom of the wells by gently adding 50 μl of 80% TCA (final concentration, 16% TCA). Using the seven absorbance measurements (time zero, (Tz), control growth, (C), and test growth in the presence of drug at the five concentration levels (Ti)), the percentage growth was calculated at each of the drug concentrations levels. Percentage growth inhibition was calculated as:
(§4) [(Ti-Tz)/(C-Tz)]×100 for concentrations for which Ti>/=Tz
(§5) [(Ti-Tz)/Tz]×100 for concentrations for which Ti<Tz.
(§6) Three dose response parameters were calculated for each experimental agent. Growth inhibition of 50% (GI50) was calculated from [(Ti-Tz)/(C-Tz)]×100=50, which is the drug concentration resulting in a 50% reduction in the net protein increase (as measured by SRB staining) in control cells during the drug incubation. The drug concentration resulting in total growth inhibition (TGI) was calculated from Ti=Tz. The LC50 (concentration of drug resulting in a 50% reduction in the measured protein at the end of the drug treatment as compared to that at the beginning) indicating a net loss of cells following treatment was calculated from [(Ti-Tz)/Tz]×100=−50. Values were calculated for each of these three parameters if the level of activity is reached; however, if the effect was not reached or was exceeded, the value for that parameter was expressed as greater or less than the maximum or minimum concentration tested.

RXF 393 = RXF 393 (Renal Cancer)
Protocol: as §1, §2, §3, §4, §5, §6

SNB-75 = SNB-75 (CNS Cancer)
Protocol: as §1, §2, §3, §4, §5, §6

OVCAR-5 = OVCAR-5 (Ovarian Cancer)
Protocol: as §1, §2, §3, §4, §5, §6

HCT-15 = HCT-15 (Colon Cancer)
Protocol: as §1, §2, §3, §4, §5, §6

HS 578T = HS 578T (Breast Cancer)
Protocol: as §1, §2, §3, §4, §5, §6

ACHN = ACHN (Renal Cancer)
Protocol: as §1, §2, §3, §4, §5, §6

M14 = M14 (Melanoma)
Protocol: as §1, §2, §3, §4, §5, §6

PC-3 = PC-3 (Prostate Cancer)
Protocol: as §1, §2, §3, §4, §5, §6

NCI-H322M = NCI-H322M (Non-Small Cell Lung Cancer)
Protocol: as §1, §2, §3, §4, §5, §6

SK-OV-3 = SK-OV-3 (Ovarian Cancer)
Protocol: as §1, §2, §3, §4, §5, §6

OVCAR-3 = OVCAR-3 (Ovarian Cancer)
Protocol: as §1, §2, §3, §4, §5, §6

BT-549 = BT-549 (Breast Cancer)
Protocol: as §1, §2, §3, §4, §5, §6

786-0 = 786-0 (Renal Cancer)
Protocol: as §1, §2, §3, §4, §5, §6

UACC-257 = UACC-257 (Melanoma)
Protocol: as §1, §2, §3, §4, §5, §6

[1] = read-out: LC50 (the source's name)

CC1(C)C2CC[C@@]1(CS(=O)(=O)N(C1CCCCC1)C1CCCCC1)C(O)C2 (stereo partly drawn) [MT103] showed a TGI (SR) of over 1.00E−04, an IC50 (SR; read-out: G150) of 23.8 µM and a CC50 (SR; [1]) of over 100 µM. It also gave a TGI (RXF 393) of 9.77E−05, an IC50 (RXF 393; read-out: G150) of 24.2 µM and a CC50 (RXF 393; [1]) of over 100 µM. It also gave an LC50 (concentration killing 50% of tumour cells) (SNB-75) of over 100 µM, a TGI (SNB-75) of 8.83E−05 and an IC50 (SNB-75; read-out: G150) of 19.5 µM. The TGI (OVCAR-5) was 5.70E−05, the IC50 (OVCAR-5; read-out: G150) was 23.7 µM and the CC50 (OVCAR-5; [1]) was over 100 µM. For the same compound, the TGI (HCT-15) was over 1.00E−04, the IC50 (HCT-15; read-out: G150) was 25.7 µM and the CC50 (HCT-15; [1]) was over 100 µM. For the same compound, the TGI (HS 578T) was over 1.00E−04, the IC50 (HS 578T; read-out: G150) was 29 µM and the CC50 (HS 578T; [1]) was over 100 µM. It also gave a TGI (ACHN) of over 1.00E−04, an IC50 (ACHN; read-out: G150) of 23.8 µM and a CC50 (ACHN; [1]) of over 100 µM. The TGI (M14) was over 1.00E−04, the IC50 (M14; read-out: G150) was 67.8 µM and the CC50 (M14; [1]) was over 100 µM. The TGI (PC-3) was over 1.00E−04, the IC50 (PC-3; read-out: G150) was 27.8 µM and the CC50 (PC-3; [1]) was over 100 µM. It also gave a TGI (NCI-H322M) of over 1.00E−04, an IC50 (NCI-H322M; read-out: G150) of 27.3 µM and a CC50 (NCI-H322M; [1]) of over 100 µM. The TGI (SK-OV-3) was over 1.00E−04, the IC50 (SK-OV-3; read-out: G150) was 83.2 µM and the CC50 (SK-OV-3; [1]) was over 100 µM. For the same compound, the TGI (OVCAR-3) was 6.30E−05, the IC50 (OVCAR-3; read-out: G150) was 23 µM and the CC50 (OVCAR-3; [1]) was over 100 µM. The TGI (BT-549) was over 1.00E−04, the IC50 (BT-549; read-out: G150) was 59.3 µM and the CC50 (BT-549; [1]) was over 100 µM. For the same compound, the TGI (786-0) was over 1.00E−04, the IC50 (786-0; read-out: G150) was 46.3 µM and the CC50 (786-0; [1]) was over 100 µM. For the same compound, the TGI (UACC-257) was 9.53E−05, the IC50 (UACC-257; read-out: G150) was 28.5 µM and the CC50 (UACC-257; [1]) was over 100 µM.
